Laboratory results from ChEMBL document CHEMBL1145592, “Pleuromutilin derivatives having a purine ring. Part 1: new compounds with promising antibacterial activity against resistant Gram-positive pathogens” (2008).
Values after ≈ are worked out from the molar mass of the structure shown.

Tests used:
Assay type in all cases: functional
Staphylococcus aureus [1] = assay: Antibacterial activity against methicillin-susceptible Staphylococcus aureus Smith
Staphylococcus aureus [2] = assay: Antibacterial activity against methicillin-resistant Staphylococcus aureus KMP9
Streptococcus pneumoniae [3] = assay: Antibacterial activity against penicillin-susceptible Streptococcus pneumoniae 1
Enterococcus faecium = assay: Antibacterial activity against vancomycin-resistant Enterococcus faecium KU1778
Staphylococcus aureus [4] = assay: Antibacterial activity against methicillin-susceptible Staphylococcus aureus Smith infected iv dosed mouse 1 hr after inoculation
Streptococcus pneumoniae [5] = assay: Antibacterial activity against penicillin-susceptible Streptococcus pneumoniae ATCC 49619
Streptococcus pneumoniae [6] = assay: Antibacterial activity against penicillin-resistant Streptococcus pneumoniae KT2524
Streptococcus pyogenes = assay: Antibacterial activity against Streptococcus pyogenes ATCC 12344
Moraxella catarrhalis = assay: Antibacterial activity against Moraxella catarrhalis K1209
Haemophilus influenzae = assay: Antibacterial activity against Haemophilus influenzae TH13

| SMILES | MIC (Staphylococcus aureus [1]) [µg/mL] | MIC (Staphylococcus aureus [2]) [µg/mL] | MIC (Streptococcus pneumoniae [3]) [µg/mL] | MIC (Enterococcus faecium) [µg/mL] | ED50 (Staphylococcus aureus [4]) [mg/kg] | MIC (Streptococcus pneumoniae [5]) [µg/mL] | MIC (Streptococcus pneumoniae [6]) [µg/mL] | MIC (Streptococcus pyogenes) [µg/mL] | MIC (Moraxella catarrhalis) [µg/mL] | MIC (Haemophilus influenzae) [µg/mL] |
| --- | --- | --- | --- | --- | --- | --- | --- | --- | --- | --- |
| C=C[C@]1(C)C[C@@H](OC(=O)CSC2CCN(C(=O)/C=C/n3cnc4cnc(N)nc43)CC2)[C@]2(C)[C@H](C)CC[C@]3(CCC(=O)[C@@H]32)[C@@H](C)[C@@H]1O | 0.1 (≈ 0.15 µM) | 0.2 (≈ 0.301 µM) | 0.39 (≈ 0.587 µM) | 0.2 (≈ 0.301 µM) | > 3.13 | – | – | – | – | – |
| C=C[C@]1(C)C[C@@H](OC(=O)CSC2CCN(C(=O)CCn3cnc4c(N5CCCC5)nc(N)nc43)CC2)[C@]2(C)[C@H](C)CC[C@]3(CCC(=O)[C@@H]32)[C@@H](C)[C@@H]1O | 0.39 (≈ 0.53 µM) | 0.39 (≈ 0.53 µM) | 0.2 (≈ 0.272 µM) | 0.39 (≈ 0.53 µM) | > 3.13 | – | – | – | – | – |
| C=C[C@]1(C)C[C@@H](OC(=O)CSC2CCN(C(=O)CCn3cnc4c(N5CCC(N(C)C)CC5)nc(N)nc43)CC2)[C@]2(C)[C@H](C)CC[C@]3(CCC(=O)[C@@H]32)[C@@H](C)[C@@H]1O | 0.25 (≈ 0.315 µM) | 0.25 (≈ 0.315 µM) | – | 0.125 (≈ 0.158 µM) | 1.72 | 0.063 (≈ 0.0794 µM) | 0.063 (≈ 0.0794 µM) | 0.032 (≈ 0.0403 µM) | 0.063 (≈ 0.0794 µM) | 2 (≈ 2.52 µM) |
| C=C[C@]1(C)C[C@@H](OC(=O)CSC2CCN(C(=O)CCn3cnc4c(N5CCNCC5)ncnc43)CC2)[C@]2(C)[C@H](C)CC[C@]3(CCC(=O)[C@@H]32)[C@@H](C)[C@@H]1O | 0.063 (≈ 0.0856 µM) | 0.063 (≈ 0.0856 µM) | – | 0.032 (≈ 0.0435 µM) | 2.94 | 0.032 (≈ 0.0435 µM) | 0.032 (≈ 0.0435 µM) | 0.016 (≈ 0.0217 µM) | 0.032 (≈ 0.0435 µM) | 1 (≈ 1.36 µM) |
| C=C[C@]1(C)C[C@@H](OC(=O)CSC2CCN(C(=O)CCn3cnc4c(N5CCC(NC)CC5)nc(N)nc43)CC2)[C@]2(C)[C@H](C)CC[C@]3(CCC(=O)[C@@H]32)[C@@H](C)[C@@H]1O | 0.5 (≈ 0.642 µM) | 2 (≈ 2.57 µM) | – | 0.5 (≈ 0.642 µM) | 1.41 | 0.125 (≈ 0.16 µM) | 0.25 (≈ 0.321 µM) | 0.063 (≈ 0.0809 µM) | 0.25 (≈ 0.321 µM) | 2 (≈ 2.57 µM) |
| C=C[C@]1(C)C[C@@H](OC(=O)CSC2CCN(C(=O)CCn3cnc4c(NC)nc(N)nc43)CC2)[C@]2(C)[C@H](C)CC[C@]3(CCC(=O)[C@@H]32)[C@@H](C)[C@@H]1O | 0.1 (≈ 0.144 µM) | 0.2 (≈ 0.287 µM) | 0.025 (≈ 0.0359 µM) | 0.1 (≈ 0.144 µM) | > 3.13 | – | – | – | – | – |
| C=C[C@]1(C)C[C@@H](OC(=O)CSC2CCN(C(=O)CCn3cnc4cncnc43)CC2)[C@]2(C)[C@H](C)CC[C@]3(CCC(=O)[C@@H]32)[C@@H](C)[C@@H]1O | 0.05 (≈ 0.0767 µM) | 0.05 (≈ 0.0767 µM) | 0.1 (≈ 0.153 µM) | 0.05 (≈ 0.0767 µM) | > 3.13 | – | – | – | – | – |
| C=C[C@]1(C)C[C@@H](OC(=O)CSC2CCN(C(=O)CCn3cnc4ncncc43)CC2)[C@]2(C)[C@H](C)CC[C@]3(CCC(=O)[C@@H]32)[C@@H](C)[C@@H]1O | 0.1 (≈ 0.153 µM) | 0.1 (≈ 0.153 µM) | 0.1 (≈ 0.153 µM) | 0.1 (≈ 0.153 µM) | > 3.13 | – | – | – | – | – |
| C=C[C@]1(C)C[C@@H](OC(=O)CSC2CCN(C(=O)CCn3cnc4c(N)nc(N)nc43)CC2)[C@]2(C)[C@H](C)CC[C@]3(CCC(=O)[C@@H]32)[C@@H](C)[C@@H]1O | 0.05 (≈ 0.0733 µM) | 0.1 (≈ 0.147 µM) | 0.025 (≈ 0.0367 µM) | 0.05 (≈ 0.0733 µM) | > 3.13 | – | – | – | – | – |
| C=C[C@]1(C)C[C@@H](OC(=O)CSC2CCN(C(=O)CCCn3cnc4cnc(N)nc43)CC2)[C@]2(C)[C@H](C)CC[C@]3(CCC(=O)[C@@H]32)[C@@H](C)[C@@H]1O | 0.1 (≈ 0.147 µM) | 0.2 (≈ 0.294 µM) | 0.78 (≈ 1.15 µM) | 0.1 (≈ 0.147 µM) | > 3.13 | – | – | – | – | – |
| C=C[C@]1(C)C[C@@H](OC(=O)CSC2CCN(C(=O)CCn3cnc4c(N5CCNC(C)C5)nc(N)nc43)CC2)[C@]2(C)[C@H](C)CC[C@]3(CCC(=O)[C@@H]32)[C@@H](C)[C@@H]1O (some centres not stated) | 0.25 (≈ 0.327 µM) | 0.25 (≈ 0.327 µM) | – | 0.125 (≈ 0.163 µM) | 2.21 | 0.063 (≈ 0.0823 µM) | 0.063 (≈ 0.0823 µM) | 0.032 (≈ 0.0418 µM) | 0.063 (≈ 0.0823 µM) | 2 (≈ 2.61 µM) |
| C=C[C@]1(C)C[C@@H](OC(=O)CSC2CCN(C(=O)CCn3cnc4c(N5CCC(N)CC5)ncnc43)CC2)[C@]2(C)[C@H](C)CC[C@]3(CCC(=O)[C@@H]32)[C@@H](C)[C@@H]1O | 0.125 (≈ 0.167 µM) | 0.25 (≈ 0.333 µM) | – | 0.063 (≈ 0.084 µM) | 1.5 | 0.016 (≈ 0.0213 µM) | 0.032 (≈ 0.0427 µM) | 0.016 (≈ 0.0213 µM) | 0.063 (≈ 0.084 µM) | 4 (≈ 5.33 µM) |
| C=C[C@]1(C)C[C@@H](OC(=O)CSC2CCN(C(=O)CCn3cnc4c(N5CCC(N)C5)nc(N)nc43)CC2)[C@]2(C)[C@H](C)CC[C@]3(CCC(=O)[C@@H]32)[C@@H](C)[C@@H]1O (some centres not stated) | 0.5 (≈ 0.666 µM) | 1 (≈ 1.33 µM) | – | 0.125 (≈ 0.166 µM) | 3.05 | 0.125 (≈ 0.166 µM) | 0.125 (≈ 0.166 µM) | 0.063 (≈ 0.0839 µM) | 0.25 (≈ 0.333 µM) | 1 (≈ 1.33 µM) |
| C=C[C@]1(C)C[C@@H](OC(=O)CSC2CCN(C(=O)CCn3cnc4c(N5CCCC(N)C5)nc(N)nc43)CC2)[C@]2(C)[C@H](C)CC[C@]3(CCC(=O)[C@@H]32)[C@@H](C)[C@@H]1O (some centres not stated) | 0.25 (≈ 0.327 µM) | 1 (≈ 1.31 µM) | – | 0.25 (≈ 0.327 µM) | 2.21 | 0.063 (≈ 0.0823 µM) | 0.063 (≈ 0.0823 µM) | 0.032 (≈ 0.0418 µM) | 0.125 (≈ 0.163 µM) | 2 (≈ 2.61 µM) |
| C=C[C@]1(C)C[C@@H](OC(=O)CSC2CCN(C(=O)CCn3cnc4c(N)ncnc43)CC2)[C@]2(C)[C@H](C)CC[C@]3(CCC(=O)[C@@H]32)[C@@H](C)[C@@H]1O | 0.2 (≈ 0.3 µM) | 0.39 (≈ 0.585 µM) | 0.78 (≈ 1.17 µM) | 0.39 (≈ 0.585 µM) | > 3.13 | – | – | – | – | – |
| C=C[C@]1(C)C[C@@H](OC(=O)CSC2CCN(C(=O)CCn3cnc4c(N5CCC(NC)CC5)ncnc43)CC2)[C@]2(C)[C@H](C)CC[C@]3(CCC(=O)[C@@H]32)[C@@H](C)[C@@H]1O | 0.125 (≈ 0.164 µM) | 0.25 (≈ 0.327 µM) | – | 0.063 (≈ 0.0825 µM) | 2.21 | 0.063 (≈ 0.0825 µM) | 0.063 (≈ 0.0825 µM) | 0.032 (≈ 0.0419 µM) | 0.125 (≈ 0.164 µM) | 2 (≈ 2.62 µM) |
| C=C[C@]1(C)C[C@@H](OC(=O)CSC2CCN(C(=O)CCn3cnc4c(N(C)C)nc(N)nc43)CC2)[C@]2(C)[C@H](C)CC[C@]3(CCC(=O)[C@@H]32)[C@@H](C)[C@@H]1O | 0.1 (≈ 0.141 µM) | 0.1 (≈ 0.141 µM) | 0.05 (≈ 0.0704 µM) | 0.1 (≈ 0.141 µM) | > 3.13 | – | – | – | – | – |
| C=C[C@]1(C)C[C@@H](OC(=O)CSC2CCN(C(=O)Cn3cnc4cncnc43)CC2)[C@]2(C)[C@H](C)CC[C@]3(CCC(=O)[C@@H]32)[C@@H](C)[C@@H]1O | 0.2 (≈ 0.314 µM) | 0.2 (≈ 0.314 µM) | 1.56 (≈ 2.45 µM) | 0.2 (≈ 0.314 µM) | – | – | – | – | – | – |
| C=C[C@]1(C)C[C@@H](OC(=O)CSC2CCN(C(=O)CCn3cnc4c(N5CCOCC5)nc(N)nc43)CC2)[C@]2(C)[C@H](C)CC[C@]3(CCC(=O)[C@@H]32)[C@@H](C)[C@@H]1O | 0.2 (≈ 0.266 µM) | 0.2 (≈ 0.266 µM) | 0.1 (≈ 0.133 µM) | 0.2 (≈ 0.266 µM) | – | – | – | – | – | – |
| C=C[C@]1(C)C[C@@H](OC(=O)CSC2CCN(C(=O)CCn3cnc4c(N5CCC(N)CC5)nc(N)nc43)CC2)[C@]2(C)[C@H](C)CC[C@]3(CCC(=O)[C@@H]32)[C@@H](C)[C@@H]1O | 0.25 (≈ 0.327 µM) | 1 (≈ 1.31 µM) | – | 0.25 (≈ 0.327 µM) | 1.86 | 0.063 (≈ 0.0823 µM) | 0.125 (≈ 0.163 µM) | 0.063 (≈ 0.0823 µM) | 0.125 (≈ 0.163 µM) | 2 (≈ 2.61 µM) |
| C=C[C@]1(C)C[C@@H](OC(=O)CSC2CCN(C(=O)CCn3cnc4c(N5CCCC(N)C5)ncnc43)CC2)[C@]2(C)[C@H](C)CC[C@]3(CCC(=O)[C@@H]32)[C@@H](C)[C@@H]1O (some centres not stated) | 0.125 (≈ 0.167 µM) | 0.125 (≈ 0.167 µM) | – | 0.032 (≈ 0.0427 µM) | 2.21 | 0.016 (≈ 0.0213 µM) | 0.032 (≈ 0.0427 µM) | 0.016 (≈ 0.0213 µM) | 0.032 (≈ 0.0427 µM) | 1 (≈ 1.33 µM) |
| C=C[C@]1(C)C[C@@H](OC(=O)CSC2CCN(C(=O)CCn3cnc4c(N5CCN(C)CC5)nc(N)nc43)CC2)[C@]2(C)[C@H](C)CC[C@]3(CCC(=O)[C@@H]32)[C@@H](C)[C@@H]1O | 0.125 (≈ 0.163 µM) | 0.125 (≈ 0.163 µM) | – | 0.125 (≈ 0.163 µM) | 8.83 | 0.125 (≈ 0.163 µM) | 0.063 (≈ 0.0823 µM) | 0.063 (≈ 0.0823 µM) | 0.063 (≈ 0.0823 µM) | 2 (≈ 2.61 µM) |
